From patent US12358914B2, “Preparation method and use of pyrazole compound containing 1-(3,4-dimethoxyphenyl)-β-carboline unit” (NANTONG UNIVERSITY, priority 2020, dated 2025)

system: Human gastric cancer cell HGC-27; experiment: In-vitro anti-tumor activity test by MTT method; assay type: cell-based; details: HGC-27 cells, 24 hours incubation with compound, OD 570 nm
Procedure: Anti-Tumor Activity Test of Compounds
The in-vitro anti-tumor activity of the compounds was tested by tetramethylazoazole colorimetric (MTT) method. Human gastric cancer cell HGC-27 was used as a test cell. 5-fluorouracil (5-FU) was selected as the positive control drug. Human gastric cancer cell HGC-27 in the exponential growth phase was made into a cell suspension with 4×10^3 cells/mL, inoculated in a 96-well plate, and cultured in a CO2 incubator for 36 hours. The test solution (10 μL) of the compound to be tested was added into the test wells, with parallel wells being set for each concentration. The same amount of DMSO was used as a blank control. The plate was incubated in a CO2 incubator for 24 hours, then the supernatant was discarded, and 10 μL of 5% MTT was added to each well. Then the plate was incubated for 4 hours, and the supernatant was sucked and discarded. Subsequently, 100 μL of DMSO was added to each well, and the plate was shaken in a shaker for 20 minutes. The OD value was measured with a microplate reader at a wavelength of 570 nm, and the cell inhibition rate was calculated. Cell inhibition rate=(OD value of negative control group−OD value of tested substance group)/OD value of negative control group×100%. The IC50 value of each compound was calculated by the probability unit weighted regression method.

Compound | IC50
COc1ccc(-c2nc(C(=O)N/N=C/c3c(C)nn(C)c3Oc3ccc(Cl)cc3)cc3c2[nH]c2ccccc23)cc1OC [Ia] | 10.1 µM
COc1ccc(Oc2c(/C=N/NC(=O)c3cc4c([nH]c5ccccc54)c(-c4ccc(OC)c(OC)c4)n3)c(C)nn2C)cc1 [Ib] | 1.89 µM
COc1ccc(-c2nc(C(=O)N/N=C/c3c(C)nn(C)c3Oc3ccc(F)cc3)cc3c2[nH]c2ccccc23)cc1OC [Ic] | 7.03 µM

Continued, values first:

IC50 | Compound
34.1 µM | O=c1[nH]cc(F)c(=O)[nH]1 [Compound 5-FU, 5-fluorouracil, reference compound]
1.27 µM | COc1ccc(-c2nc(C(=O)N/N=C/c3c(C)nn(C)c3Oc3ccc(F)cc3F)cc3c2[nH]c2ccccc23)cc1OC [Id]
